Data published in patent US10750743B2, “Pyridazinone herbicides” (E.I. DU PONT DE NEMOURS AND COMPANY, priority 2015, dated 2020).

What was measured:
Assay type in all cases: in vivo
Foxtail, Green [1] = assay: Test A preemergence, directed soil spray, visual injury rating; conditions: 0 is no effect, 100 is complete control
[2] = test system: barnyardgrass (Echinochloa crus-galli); assay: as above; conditions: 0 is no effect, 100 is complete control
Outline: (§1)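 Seeds sown in a loam soil–sand blend received a directed preemergence soil spray of test chemical in a non-phytotoxic solvent mixture with surfactant. Postemergence plants were sprayed at 2 to 10 cm, one- to two-leaf stage. After approximately 10 d in greenhouse, injury was visually rated 0 (no effect) to 100 (complete control) against untreated controls.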

kochia (Kochia scoparia) [3] = assay: as above; conditions: 0 is no effect, 100 is complete control
Outline: as §1

[4] = test system: pigweed (Amaranthus retroflexus); assay: as above; conditions: 0 is no effect, 100 is complete control
Outline: as §1

[5] = test system: ragweed (common ragweed, Ambrosia elatior); assay: as above; conditions: 0 is no effect, 100 is complete control
Outline: as §1

[6] = test system: ryegrass, It. (Italian ryegrass, Lolium multiflorum); assay: as above; conditions: 0 is no effect, 100 is complete control
Outline: as §1

[7] = test system: barnyardgrass (Echinochloa crus-galli); assay: Test B flooded paddy test, visual rating; conditions: Flood, 250 g ai/ha, applied to paddy water, rated after 13 to 15 d
Outline: (§2)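 Plants at the 2-leaf stage were flooded to 3 cm above soil, and test compounds were applied directly into the paddy water, which was held at that depth throughout. After 13 to 15 d in a greenhouse, injury was rated visually against untreated controls on a 0–100 scale (0 no effect, 100 complete control).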

[8] = test system: ducksalad (Heteranthera limosa); assay: Test B flooded paddy test, visual rating; conditions: Flood, 250 g ai/ha, applied to paddy water, rated after 13 to 15 d
Outline: as §2

rice (Oryza sativa) = assay: Test B flooded paddy test, visual rating; conditions: Flood, 250 g ai/ha, applied to paddy water, rated after 13 to 15 d
Outline: as §2

[9] = test system: sedge, umbrella (small-flower umbrella sedge, Cyperus difformis); assay: Test B flooded paddy test, visual rating; conditions: Flood, 250 g ai/ha, applied to paddy water, rated after 13 to 15 d
Outline: as §2

Foxtail, Green [10] = assay: Test A postemergence application, visual injury rating; conditions: for Foxtail, Green plant response rating: 0 to 100 scale, 0 no effect, 100 complete control
[11] = test system: barnyardgrass (Echinochloa crus-galli); assay: as above; conditions: 0 to 100 scale, 0 no effect, 100 complete control
Outline: as §1

[12] = test system: blackgrass (Alopecurus myosuroides); assay: as above; conditions: 0 to 100 scale, 0 no effect, 100 complete control
Outline: as §1

corn (Zea mays) = assay: as above; conditions: for Corn plant response rating: 0 to 100 scale, 0 no effect, 100 complete control
Outline: as §1

[13] = test system: galium (catchweed bedstraw, Galium aparine); assay: as above; conditions: for Galium plant response rating: 0 to 100 scale, 0 no effect, 100 complete control
Outline: as §1

kochia (Kochia scoparia) [14] = assay: as above; conditions: for Kochia plant response rating: 0 to 100 scale, 0 no effect, 100 complete control
Outline: as §1

[15] = test system: pigweed (Amaranthus retroflexus); assay: as above; conditions: for Pigweed plant response rating: 0 to 100 scale, 0 no effect, 100 complete control
Outline: as §1

[16] = test system: ragweed (common ragweed, Ambrosia elatior); assay: as above; conditions: for Ragweed plant response rating: 0 to 100 scale, 0 no effect, 100 complete control
Outline: as §1

[17] = test system: ryegrass, It. (Italian ryegrass, Lolium multiflorum); assay: as above; conditions: for Ryegrass, It. plant response rating: 0 to 100 scale, 0 no effect, 100 complete control
Outline: as §1

[18] = test system: wheat (Triticum aestivum); assay: as above; conditions: for Wheat plant response rating: 0 to 100 scale, 0 no effect, 100 complete control
Outline: as §1

[19] = 31 g ai/ha, 0 is no effect, 100 is complete control

Row | SMILES | Plant response rating (0 to 100 scale), Foxtail, Green (Foxtail, Green [1]; 31 g ai/ha) | Plant response rating (0 to 100 scale), Foxtail, Green (Foxtail, Green [1]; 125 g ai/ha) | Plant response rating (0 to 100 scale), Barnyardgrass ([2]; 31 g ai/ha) | Plant response rating (0 to 100 scale), Barnyardgrass ([2]; 125 g ai/ha) | Plant response rating (0 to 100 scale), Kochia (kochia (Kochia scoparia) [3]; 31 g ai/ha) | Plant response rating (0 to 100 scale), Kochia (kochia (Kochia scoparia) [3]; 125 g ai/ha) | Plant response rating (0 to 100 scale), Pigweed ([4]; 31 g ai/ha) | Plant response rating (0 to 100 scale), Pigweed ([4]; 125 g ai/ha) | Plant response rating (0 to 100 scale), Ragweed ([5]; 31 g ai/ha) | Plant response rating (0 to 100 scale), Ragweed ([5]; 125 g ai/ha) | Plant response rating (0 to 100 scale), Ryegrass, It. ([6]; 31 g ai/ha) | Plant response rating (0 to 100 scale), Ryegrass, It. ([6]; 125 g ai/ha) | Barnyardgrass plant response rating (0 to 100 scale, 0 is no effect, 100 is complete control) [7] | Ducksalad plant response rating (0 to 100 scale, 0 is no effect, 100 is complete control) [8] | Rice plant response rating (0 to 100 scale, 0 is no effect, 100 is complete control) (rice (Oryza sativa)) | Sedge, Umbrella plant response rating (0 to 100 scale, 0 is no effect, 100 is complete control) [9] | Foxtail, Green plant response rating (Foxtail, Green [10]; 125 g ai/ha) | Barnyardgrass plant response rating ([11]; 31 g ai/ha) | Barnyardgrass plant response rating ([11]; 125 g ai/ha) | Blackgrass plant response rating ([12]; 31 g ai/ha) | further results
1 | Cc1cc2ccc(C(F)(F)F)c(-c3c(O)c(C)nn(C)c3=O)c2o1 [Compound 49] | 0 | 0 | 0 | 0 | 0 | 40 | 30 | 100 | 0 | 90 | 20 | 50 | 0 | 0 | 0 | 0 | 30 | 0 | 10 | 0 | Foxtail, Green plant response rating (Foxtail, Green [10]; 31 g ai/ha): 20; Blackgrass plant response rating ([12]; 125 g ai/ha): 0; Corn plant response rating (corn (Zea mays); 31 g ai/ha): 0; Corn plant response rating (corn (Zea mays); 125 g ai/ha): 20; Galium plant response rating ([13]; 31 g ai/ha): 80; Galium plant response rating ([13]; 125 g ai/ha): 90; Kochia plant response rating (kochia (Kochia scoparia) [14]; 31 g ai/ha): 60; Kochia plant response rating (kochia (Kochia scoparia) [14]; 125 g ai/ha): 80; Pigweed plant response rating ([15]; 31 g ai/ha): 90; Pigweed plant response rating ([15]; 125 g ai/ha): 100; Ragweed plant response rating ([16]; 31 g ai/ha): 80; Ragweed plant response rating ([16]; 125 g ai/ha): 90; Ryegrass, It. plant response rating ([17]; 31 g ai/ha): 10; Ryegrass, It. plant response rating ([17]; 125 g ai/ha): 40; Wheat plant response rating ([18]; 31 g ai/ha): 0; Wheat plant response rating ([18]; 125 g ai/ha): 0
2 | Cc1nn(C)c(=O)c(-c2c(Br)ccc3c2cnn3C)c1O [Compound 65] | 0 | 0 | 0 | 0 | 0 | 0 | 0 | 0 | 0 | 0 | 0 | 0 | 0 | 0 | 0 | 0 | 0 | 0 | 0 | 0 | Plant response rating (0 to 100 scale), Foxtail, Green (Foxtail, Green [10]; [19]): 0; Blackgrass plant response rating ([12]; 125 g ai/ha): 0; Plant response rating (0 to 100 scale), Corn (corn (Zea mays); [19]): 0; Corn plant response rating (corn (Zea mays); 125 g ai/ha): 0; Plant response rating (0 to 100 scale), Galium [13, 19]: 0; Galium plant response rating ([13]; 125 g ai/ha): 0; Plant response rating (0 to 100 scale), Kochia (kochia (Kochia scoparia) [14]; [19]): 0; Kochia plant response rating (kochia (Kochia scoparia) [14]; 125 g ai/ha): 0; Plant response rating (0 to 100 scale), Pigweed [15, 19]: 0; Pigweed plant response rating ([15]; 125 g ai/ha): 0; Plant response rating (0 to 100 scale), Ragweed [16, 19]: 0; Ragweed plant response rating ([16]; 125 g ai/ha): 0; Plant response rating (0 to 100 scale), Ryegrass, It. [17, 19]: 0; Ryegrass, It. plant response rating ([17]; 125 g ai/ha): 0; Plant response rating (0 to 100 scale), Wheat [18, 19]: 0; Wheat plant response rating ([18]; 125 g ai/ha): 0
3 | Cn1ncc(O)c(-c2cccc3cnccc23)c1=O [Compound 34] | 0 | 0 | 0 | 0 | 0 | 0 | 0 | 0 | 0 | 0 | 0 | 0 | 0 | 0 | 0 | 0 | 0 | 0 | 0 | 0 | Foxtail, Green plant response rating (Foxtail, Green [10]; 31 g ai/ha): 0; Blackgrass plant response rating ([12]; 125 g ai/ha): 0; Corn plant response rating (corn (Zea mays); 31 g ai/ha): 0; Corn plant response rating (corn (Zea mays); 125 g ai/ha): 0; Galium plant response rating ([13]; 31 g ai/ha): 0; Galium plant response rating ([13]; 125 g ai/ha): 0; Kochia plant response rating (kochia (Kochia scoparia) [14]; 31 g ai/ha): 0; Kochia plant response rating (kochia (Kochia scoparia) [14]; 125 g ai/ha): 0; Pigweed plant response rating ([15]; 31 g ai/ha): 0; Pigweed plant response rating ([15]; 125 g ai/ha): 0; Ragweed plant response rating ([16]; 31 g ai/ha): 0; Ragweed plant response rating ([16]; 125 g ai/ha): 0; Ryegrass, It. plant response rating ([17]; 31 g ai/ha): 0; Ryegrass, It. plant response rating ([17]; 125 g ai/ha): 0; Wheat plant response rating ([18]; 31 g ai/ha): 0; Wheat plant response rating ([18]; 125 g ai/ha): 0
